Data on 1 compound can be found in ChEMBL document CHEMBL4270557, “Discovery of potent anti-convulsant carbonic anhydrase inhibitors: Design, synthesis, in vitro and in vivo appraisal” (Eur J Med Chem, 2018).

One series concerns the target Carbonic anhydrase 1 (Homo sapiens, UniProt P00915). Briefly: Inhibition of human recombinant carbonic anhydrase 1 assessed as CO2 hydration preincubated for 15 mins prior to testing measured for 10 to 100 secs by phenol red dye-based stopped-flow assay.
The test system of series [1] is Mus musculus. In words: Anticonvulsant activity in Swiss albino mouse assessed as protection against maximal electroshock-induced seizures at 30 mg/kg, ip administered 0.5 hrs prior to 50 mA current induction relative to control. It is filed as functional. In general terms: In the maximal electroshock model the usual endpoint is tonic extension of the hind limbs.

Series [2] relates to Mus musculus. In words: Anticonvulsant activity in Swiss albino mouse assessed as protection against maximal electroshock-induced seizures at 100 mg/kg, ip administered 3 hrs prior to 50 mA current induction relative to control. It is filed as functional.
In series [3] the test system is Mus musculus. Briefly: Anticonvulsant activity in Swiss albino mouse assessed as protection against maximal electroshock-induced seizures at 30 mg/kg, ip administered 6 hrs prior to 50 mA current induction relative to control. The format is functional.
For series [4], the system named is Rattus norvegicus. Briefly: Sub-acute toxicity in Wistar rat assessed as eosinophils level at 100 mg/kg, po administered daily for 14 days (reference value: 2 +/- 1.4%). It is filed as organism-based. To be noted: in vivo, 336 h.
Series [5] concerns Rattus norvegicus. In words: Sub-acute toxicity in Wistar rat assessed as SGOT level at 100 mg/kg, po administered daily for 14 days (reference value: 69.9 +/- 7.7 U/L). The format is organism-based. The note with it: in vivo, 336 h.
For series [6], the system named is Rattus norvegicus. Briefly: Sub-acute toxicity in Wistar rat assessed as alkaline phosphatase level at 100 mg/kg, po administered daily for 14 days (reference value: 113.2 +/- 15.1 U/L). It is filed as organism-based. The note with it: in vivo, 336 h.
Series [7] concerns Rattus norvegicus. Briefly: Sub-acute toxicity in Wistar rat assessed as total protein level at 100 mg/kg, po administered daily for 14 days (reference value: […]). It is filed as organism-based. The note with it: in vivo, 336 h.
Series [8] deals with Rattus norvegicus. Briefly: Sub-acute toxicity in Wistar rat assessed as creatinine level at 100 mg/kg, po administered daily for 14 days (reference value: 0.62 +/- 0.3 mg/dl). The format is organism-based. To be noted: in vivo, 336 h.
Series [9] concerns Rattus norvegicus. In words: Sub-acute toxicity in Wistar rat assessed as uric acid level at 100 mg/kg, po administered daily for 14 days (reference value: 3.9 +/- 2.8 mg/dl). The format is organism-based. To be noted: in vivo, 336 h.
In series [10] the test system is Rattus norvegicus. In words: Sub-acute toxicity in Wistar rat assessed as calcium level at 100 mg/kg, po administered daily for 14 days (reference value: 10.5 +/- 1.5 mg/dl). It is filed as organism-based. To be noted: in vivo, 336 h.
Series [11] concerns Rattus norvegicus. In words: Sub-acute toxicity in Wistar rat assessed as phosphorus level at 100 mg/kg, po administered daily for 14 days (reference value: 6.71 +/- 1 mg/dl). It is filed as organism-based. To be noted: in vivo, 336 h.
Series [12] concerns Rattus norvegicus. Briefly: Sub-acute toxicity in Wistar rat assessed as Na+ level at 100 mg/kg, po administered daily for 14 days (reference value: 143.8 +/- 2.3 mEq/L). The format is organism-based. To be noted: in vivo, 336 h.
The subject of series [13] is Rattus norvegicus. In words: Sub-acute toxicity in Wistar rat assessed as K+ level at 100 mg/kg, po administered daily for 14 days (reference value: 4.79 +/- 0.45 mEq/L). It is filed as organism-based. To be noted: in vivo, 336 h.
The test system of series [14] is Rattus norvegicus. In words: Sub-acute toxicity in Wistar rat assessed as change in behavior at 100 mg/kg, po administered daily for 14 days. It is filed as organism-based. To be noted: in vivo, 336 h.
Series [15] has as its system Rattus norvegicus. In words: Sub-acute toxicity in Wistar rat assessed as hemoglobin level at 100 mg/kg, po administered daily for 14 days (reference value: 13.1 +/- 0.9 g/dl). The note with it: in vivo, 336 h.

Broadly, the Ki is a measure of affinity in units of concentration, obtained from inhibition or displacement.

Each structure is given as a SMILES string. Some results are limits rather than exact numbers.

Chain of Carbonic anhydrase 1 (P00915 whole entry): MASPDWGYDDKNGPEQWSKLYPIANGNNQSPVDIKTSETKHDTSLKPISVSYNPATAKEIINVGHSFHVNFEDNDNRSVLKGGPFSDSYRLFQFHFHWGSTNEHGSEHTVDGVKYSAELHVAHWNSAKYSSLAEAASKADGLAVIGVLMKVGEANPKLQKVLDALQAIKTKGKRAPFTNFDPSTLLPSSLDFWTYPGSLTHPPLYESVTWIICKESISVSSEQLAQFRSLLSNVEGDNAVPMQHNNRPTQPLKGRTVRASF

As to `Cc1ccc(N2CCN(c3ccc(/C=N/NC(=O)c4ccc(S(N)(=O)=O)cc4)cc3)CC2)c(C)c1`, at Carbonic anhydrase 1, the Ki is > 10 µM. In addition, the Activity with Mus musculus [1] is 67 - 70%; in the series on Mus musculus [2], 50%; in the series with Mus musculus [3], 60%; in the series with Rattus norvegicus [4] it was 2.6%; with Rattus norvegicus [5] it was 65 U/L; in the series on Rattus norvegicus [6], 96.5 U/L. Moreover, the Activity came out at 6.62 g/dL with Rattus norvegicus [7]; 0.75 mg/dL in the series with Rattus norvegicus [8]; 4.33 mg/dL in the series on Rattus norvegicus [9]; 10 mg/dL in the series on Rattus norvegicus [10]; 6.48 mg/dL with Rattus norvegicus [11]; 142.5 mEq/L in the series on Rattus norvegicus [12]. The Activity is 4.83 mEq/L with Rattus norvegicus [13], “Non-Toxic” with Rattus norvegicus [14] and 12.2 g/dL in the series on Rattus norvegicus [15].
